Our source for the IC50 and EC50 values is ChEMBL document CHEMBL4627311, “Discovery of 4-((1-(1H-imidazol-2-yl)alkoxy)methyl)pyridines as a new class of Trypanosoma cruzi growth inhibitors” (Bioorg Med Chem Lett, 2020).

Structures are written as SMILES. pEC50, pIC50: −log10 of the molar value.

Sterol 14-alpha demethylase, sequence (Q7Z1V1 whole entry): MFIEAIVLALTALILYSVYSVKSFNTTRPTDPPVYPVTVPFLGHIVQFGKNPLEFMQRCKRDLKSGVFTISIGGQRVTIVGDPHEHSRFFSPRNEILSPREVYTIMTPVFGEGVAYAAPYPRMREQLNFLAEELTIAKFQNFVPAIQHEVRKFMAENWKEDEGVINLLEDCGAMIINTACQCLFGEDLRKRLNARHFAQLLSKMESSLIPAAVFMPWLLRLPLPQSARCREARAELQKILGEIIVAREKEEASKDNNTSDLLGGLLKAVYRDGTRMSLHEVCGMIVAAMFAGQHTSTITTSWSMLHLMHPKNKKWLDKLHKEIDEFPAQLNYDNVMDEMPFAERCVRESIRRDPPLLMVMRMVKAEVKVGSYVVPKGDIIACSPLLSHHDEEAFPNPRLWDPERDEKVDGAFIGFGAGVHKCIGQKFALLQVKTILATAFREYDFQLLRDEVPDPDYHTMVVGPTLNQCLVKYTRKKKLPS

The first experiment addresses Sterol 14-alpha demethylase (Trypanosoma cruzi (strain CL Brener), UniProt Q7Z1V1). In words: Inhibition of Trypanosoma cruzi CYP51.
With `CCC(=O)CCCCCC(Oc1ccc2ccccc2c1)c1ncc(Cc2ccccc2)[nH]1` (centres undefined), the pIC50 was 5.54. On the same count and under the same terms, the result for `CC(OCc1ccncc1)c1ncc(-c2ccc3ccccc3c2)[nH]1` (centres undefined) reads 7.11; that for `CCC(=O)CCCCCC(OCc1ccncc1)c1ncc(-c2ccc3ccccc3c2)o1` (centres undefined), 7.28. Regarding `CCC(=O)CCCCCC(Oc1ccc2ccccc2c1)c1ncc(Cc2ccncc2)[nH]1` (stereo in doubt; 11), the pIC50 was 7.28. Still for that read-out and setting: the result for `CCC(=O)CCCCCC(Oc1ccc2ccccc2c1)c1ncc(Cc2ccncc2)[nH]1` (stereo in doubt; 34) reads 7.39.

In turn, `CCC(=O)CCCCCC(Oc1ccc2ccccc2c1)c1ncc(Cc2ccncc2)[nH]1` (stereo in doubt; 35) had a pIC50 of 7.47.

For another experiment, the system named is Trypanosoma cruzi. In words: Antitrypanosomal activity against Trypanosoma cruzi. It is filed as functional, organism-based.
Compound `CCC(=O)CCCCCC(Oc1cc2ccccc2nc1OC)c1ncc(Cc2ccncc2)[nH]1` (centres undefined) had a negative logarithm of the EC50 (pEC50) of 5.70. Same read-out and setting: the result for `O=C(Cn1ccnc1[N+](=O)[O-])NCc1ccccc1` [BENZNIDAZOLE] reads 5.70; that for `CC1CS(=O)(=O)CCN1/N=C/c1ccc([N+](=O)[O-])o1` (centres undefined) [NIFURTIMOX], 5.10.

As usually defined, the pIC50 is −log10 of the IC50, conventionally taken in molar units. Read a low pIC50 as a large IC50. Usually pEC50 stands for −log10 of the EC50, conventionally taken in molar units.
